Data on seven compounds can be found in PubChem BioAssay (NCI).

Among the test systems are SK-OV-3 ovarian; NCI/ADR-RES ovarian; HOP-92 NSCLC; RXF 393 renal; HL-60(TB) leukemia; LOX IMVI melanoma; SK-MEL-2 melanoma; SW-620 colon; MDA-MB-435; T-47D breast; HCT-15 colon; OVCAR-3 ovarian; SF-295 CNS; HT29 colon; MDA-MB-231 breast; SK-MEL-28 melanoma; OVCAR-8 ovarian; TK-10 renal; RPMI-8226 leukemia; HCC-2998 colon.
Assay in all cases: inhibition of tumour cell growth, NCI panel, 48 h

Each structure is given as a SMILES string.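 The compound was tested at five concentrations on cells cultured in 96-well plates, with a 48-hour exposure period. At the TGI there is no net growth.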

On to `N#Cc1ccc(N2CCOCC2)cc1`, for which the TGI in the experiment with SK-OV-3 ovarian, with NCI/ADR-RES ovarian, in the experiment with HOP-92 NSCLC, with RXF 393 renal, in the experiment with HL-60(TB) leukemia and with LOX IMVI melanoma was above 100 µM in each case. The TGI in the experiment on SK-MEL-2 melanoma, with SW-620 colon, in the experiment on MDA-MB-435, in the experiment on T-47D breast, in the experiment with HCT-15 colon and in the experiment on OVCAR-3 ovarian was above 100 µM in each case. Further, the TGI in the experiment on SF-295 CNS, with HT29 colon, with MDA-MB-231 breast, in the experiment with SK-MEL-28 melanoma, in the experiment with OVCAR-8 ovarian and in the experiment with TK-10 renal was above 100 µM in each case.

With `CC1=NNC(=O)C1C1CC(c2c[nH]c3ccccc23)=NN(C(N)=O)C1=O` (stereo unspecified), the TGI in the experiment with SK-OV-3 ovarian, with NCI/ADR-RES ovarian, in the experiment on HOP-92 NSCLC, in the experiment with RXF 393 renal, in the experiment with HL-60(TB) leukemia and in the experiment on LOX IMVI melanoma was above 100 µM throughout. For the same compound, the TGI with SK-MEL-2 melanoma, in the experiment on SW-620 colon, with MDA-MB-435, in the experiment on T-47D breast, in the experiment with HCT-15 colon and with OVCAR-3 ovarian was above 100 µM throughout. In addition, the TGI in the experiment on SF-295 CNS, in the experiment on HT29 colon, with MDA-MB-231 breast, in the experiment on RPMI-8226 leukemia, in the experiment on SK-MEL-28 melanoma and with OVCAR-8 ovarian was above 100 µM each time. Also, the TGI in the experiment on TK-10 renal was above 100 µM.

With `COC(=O)C1=C(OC(=O)c2ccccc2)C(C(=O)OC)[C@@]2(O)[C@@H](C(=O)OC)[C@H](C)C[C@@H]1[C@@H]2C(=O)OC` (stereo partly specified), the TGI in the experiment on SK-OV-3 ovarian is above 100 µM; with NCI/ADR-RES ovarian, 44.8 µM; with RXF 393 renal it was 42.9 µM; in the experiment with HL-60(TB) leukemia, above 100 µM; with HCC-2998 colon, 89.7 µM; with LOX IMVI melanoma it was above 100 µM. In addition, the TGI in the experiment with SK-MEL-2 melanoma, with SW-620 colon, in the experiment on MDA-MB-435, in the experiment with T-47D breast, in the experiment with HCT-15 colon and in the experiment on OVCAR-3 ovarian was above 100 µM throughout. The TGI with SF-295 CNS, in the experiment on HT29 colon, with MDA-MB-231 breast, with RPMI-8226 leukemia, in the experiment on SK-MEL-28 melanoma and in the experiment with OVCAR-8 ovarian was above 100 µM throughout. In the experiment with TK-10 renal, the TGI was above 100 µM.

For the compound `O=C1/C(=C/c2ccco2)N=C2Sc3c(nc[nH]c3=O)N12`, the TGI with SK-OV-3 ovarian, in the experiment with NCI/ADR-RES ovarian, in the experiment with HOP-92 NSCLC, with RXF 393 renal, in the experiment on HL-60(TB) leukemia and with LOX IMVI melanoma was above 100 µM throughout. Moreover, the TGI in the experiment on SK-MEL-2 melanoma, with SW-620 colon, in the experiment on MDA-MB-435, in the experiment on T-47D breast, with HCT-15 colon and with OVCAR-3 ovarian was above 100 µM throughout. The TGI in the experiment with SF-295 CNS, in the experiment with HT29 colon, in the experiment on MDA-MB-231 breast, with RPMI-8226 leukemia, with SK-MEL-28 melanoma and in the experiment on OVCAR-8 ovarian was above 100 µM throughout. Further, the TGI with TK-10 renal is above 100 µM.

Consider `[N-]=[N+]=Nc1c(Cl)c(Cl)nc2ccccc12`, for which the TGI with SK-OV-3 ovarian, in the experiment with NCI/ADR-RES ovarian, in the experiment with HOP-92 NSCLC, in the experiment with RXF 393 renal, in the experiment on HCC-2998 colon and in the experiment on LOX IMVI melanoma was above 100 µM throughout. Also, the TGI in the experiment on SK-MEL-2 melanoma, in the experiment with SW-620 colon, in the experiment with MDA-MB-435, with T-47D breast, with HCT-15 colon and in the experiment on OVCAR-3 ovarian was above 100 µM each time. Further, the TGI in the experiment with SF-295 CNS, in the experiment on HT29 colon, in the experiment with MDA-MB-231 breast, in the experiment on RPMI-8226 leukemia, in the experiment on SK-MEL-28 melanoma and in the experiment with OVCAR-8 ovarian was above 100 µM throughout. In the experiment on TK-10 renal, this compound came in with a TGI above 100 µM.

Turning to `O=C(CC(C(=O)c1cccs1)c1ccsc1)c1ccccc1` (stereo unspecified), the TGI is above 100 µM with SK-OV-3 ovarian; 80.4 µM in the experiment with NCI/ADR-RES ovarian; above 100 µM with HOP-92 NSCLC; above 100 µM in the experiment on RXF 393 renal; above 100 µM in the experiment with HCC-2998 colon; above 100 µM with LOX IMVI melanoma. Besides, the TGI in the experiment on SW-620 colon, in the experiment on MDA-MB-435, in the experiment on T-47D breast, with HCT-15 colon, in the experiment with OVCAR-3 ovarian and in the experiment on SF-295 CNS was above 100 µM each time. Besides, the TGI was above 100 µM in the experiment on HT29 colon; 96.9 µM with MDA-MB-231 breast; above 100 µM in the experiment with RPMI-8226 leukemia; above 100 µM with SK-MEL-28 melanoma; above 100 µM in the experiment on OVCAR-8 ovarian; above 100 µM in the experiment on TK-10 renal.

For `CCOC(=O)C1(N)CCc2[nH][nH]c(=O)c2C1` (stereo unspecified), the TGI in the experiment with SK-OV-3 ovarian, in the experiment with NCI/ADR-RES ovarian, with HOP-92 NSCLC, in the experiment with HL-60(TB) leukemia, in the experiment with HCC-2998 colon and in the experiment with LOX IMVI melanoma was above 100 µM each time. Also, the TGI in the experiment on SK-MEL-2 melanoma, in the experiment with SW-620 colon, with MDA-MB-435, with T-47D breast, in the experiment on HCT-15 colon and in the experiment on OVCAR-3 ovarian was above 100 µM in each case. Besides, the TGI with SF-295 CNS, in the experiment on HT29 colon, in the experiment on MDA-MB-231 breast, with RPMI-8226 leukemia, in the experiment with SK-MEL-28 melanoma and with OVCAR-8 ovarian was above 100 µM in each case. In the experiment on TK-10 renal, this compound came in with a TGI above 100 µM.
